Laboratory results taken from US10047081B2, “BACE1 inhibitors” (Hoffmann-La Roche Inc., priority 2015, dated 2018).

How the values were obtained:
BACE1 = target: T1, BACE1 (Homo sapiens, UniProt P56817); experiment: Cellular Aβ-lowering assay (Abeta 40 AlphaLISA, HEK293 APP cells); type: cell-based; conditions: 18-20 hrs incubation, Aβ 40 in culture supernatant, read-out: BACE1 cell act. Aβ40 IC50
T1 construct: endogenous in cells; host or cells: HEK293 APP cells
Procedure, shortened: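 HEK293 APP cells were treated with compound for 18-20 hrs at 37° C in 1% DMSO. Secreted Aβ40 in the supernatant was measured by AlphaLISA at 615 nm. Values are % of the DMSO-only signal, fit to give IC50.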

[1] = GSH human, in vitro adduct formation; type: in vitro ADME; design: key: NF = in vitro no significant adduct formation relative to control; conditions: in vitro adduct formation relative to control
CYP2C9 = target: T2, CYP2C9 (Homo sapiens, UniProt P11712); experiment: CYP inhibition assay, human liver microsomes; type: in vitro ADME; conditions: human liver microsomes, substrate diclofenac; read-out: CYP IC50 2C9
T2 construct: 0.2 mg/ml pooled human liver microsomes; from tissue; host or cells: pooled human liver microsomes
Protocol: (§1) Inhibition of cytochromes P450 (CYPs) 2C9, 2D6 and 3A4 was assessed using human liver microsomes and CYP-selective substrate metabolism reactions. 50 μl incubations were made up containing (finally) 0.2 mg/ml pooled human liver microsomes, 5 μM substrate (diclofenac for CYP2C9 [4′hydroxylase], dextromethorphan for CYP2D6 [O-demethylase] or midazolam for CYP3A4 [1′hydroxylase]), 0.25 μL DMSO containing test inhibitor and NADPH regenerating system. Test inhibitor concentrations of 50, 16.7, 5.6, 1.9, 0.6 and 0.2 μM were assessed in singlicate. Incubations were prewarmed to 37° C. for 10 minutes before initiation by addition of NADPH regenerating system. Incubations were quenched after 5 minutes (20 minutes for dextromethorphan) by addition of 50 μl cold acetonitrile containing 20 ng/ml 4-OH-diclofenac-13C6, 20 ng/mL dextrorphan-D3 and 20 ng/mL 1-OH-midazolam-D4. Quenched incubates were stored at −20° C. for at least 1 hour before centrifugation (20,000× g, 20 minutes). Supernatants were removed and diluted 1:1 with water prior to analysis using a RapidFire sample injector system and API4000 mass spectrometer. Peak areas for substrate, metabolite and stable-labelled metabolite standard were determined using MS/MS. The peak area ratios between the metabolite generated by the enzymatic reaction and the internal standard were used in subsequent calculations. The percentage of (DMSO) control activity was calculated for each incubate and IC50 values estimated by non-linear regression. Sulfaphenazole, quinidine or ketoconazole were tested in each CYP2C9, CYP2D6 or CYP3A4 inhibition experiment, respectively, to ensure assay sensitivity and reproducibility. (Validated assays for human cytochrome P450 activities, R. L. Walsky and R. S. Obach, Drug Metabolism and Disposition 32: 647-660, 2004. and S. Fowler and H. Zhang, The AAPS Journal, Vol. 10, No. 2, 410-424, 2008)

CYP3A4 = target: T3, CYP3A4 (Homo sapiens, UniProt P08684); experiment: CYP inhibition assay, human liver microsomes; type: in vitro ADME; conditions: human liver microsomes, substrate midazolam; read-out: CYP IC50 3A4
T3 construct: 0.2 mg/ml pooled human liver microsomes; from tissue; host or cells: pooled human liver microsomes
Protocol: as §1

CYP2D6 = target: T4, CYP2D6 (Homo sapiens, UniProt P10635); experiment: CYP inhibition assay, human liver microsomes; type: in vitro ADME; conditions: human liver microsomes, substrate dextromethorphan; read-out: CYP IC50 2D6
T4 construct: 0.2 mg/ml pooled human liver microsomes; from tissue; host or cells: pooled human liver microsomes
Protocol: as §1

T4 sequence (P10635 whole entry): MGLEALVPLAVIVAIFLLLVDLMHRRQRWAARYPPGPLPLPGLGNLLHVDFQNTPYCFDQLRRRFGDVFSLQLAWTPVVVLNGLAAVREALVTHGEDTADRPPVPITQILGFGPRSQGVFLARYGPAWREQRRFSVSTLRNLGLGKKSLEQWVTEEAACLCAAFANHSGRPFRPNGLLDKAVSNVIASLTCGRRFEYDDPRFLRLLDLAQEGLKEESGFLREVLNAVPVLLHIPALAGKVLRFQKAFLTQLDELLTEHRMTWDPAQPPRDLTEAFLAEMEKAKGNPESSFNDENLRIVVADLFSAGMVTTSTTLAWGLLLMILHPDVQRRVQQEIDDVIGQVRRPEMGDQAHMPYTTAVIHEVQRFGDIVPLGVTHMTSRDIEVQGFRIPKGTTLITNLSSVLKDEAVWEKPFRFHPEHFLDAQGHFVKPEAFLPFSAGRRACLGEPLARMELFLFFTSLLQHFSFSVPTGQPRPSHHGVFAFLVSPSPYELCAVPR
T3 sequence (P08684 whole entry): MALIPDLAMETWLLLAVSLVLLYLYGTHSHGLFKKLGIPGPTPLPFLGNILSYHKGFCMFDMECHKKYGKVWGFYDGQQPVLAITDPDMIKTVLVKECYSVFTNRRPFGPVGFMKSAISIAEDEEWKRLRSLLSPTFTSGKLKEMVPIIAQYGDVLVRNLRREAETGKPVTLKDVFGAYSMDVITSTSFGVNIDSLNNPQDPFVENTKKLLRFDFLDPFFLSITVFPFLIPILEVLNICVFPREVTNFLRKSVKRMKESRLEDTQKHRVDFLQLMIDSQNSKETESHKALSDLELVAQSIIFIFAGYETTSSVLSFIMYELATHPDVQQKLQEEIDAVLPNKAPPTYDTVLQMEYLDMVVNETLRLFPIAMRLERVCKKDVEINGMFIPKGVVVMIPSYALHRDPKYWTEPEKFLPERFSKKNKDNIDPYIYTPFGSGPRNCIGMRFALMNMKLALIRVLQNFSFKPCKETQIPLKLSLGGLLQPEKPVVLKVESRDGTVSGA
T1 sequence (P56817 46-501): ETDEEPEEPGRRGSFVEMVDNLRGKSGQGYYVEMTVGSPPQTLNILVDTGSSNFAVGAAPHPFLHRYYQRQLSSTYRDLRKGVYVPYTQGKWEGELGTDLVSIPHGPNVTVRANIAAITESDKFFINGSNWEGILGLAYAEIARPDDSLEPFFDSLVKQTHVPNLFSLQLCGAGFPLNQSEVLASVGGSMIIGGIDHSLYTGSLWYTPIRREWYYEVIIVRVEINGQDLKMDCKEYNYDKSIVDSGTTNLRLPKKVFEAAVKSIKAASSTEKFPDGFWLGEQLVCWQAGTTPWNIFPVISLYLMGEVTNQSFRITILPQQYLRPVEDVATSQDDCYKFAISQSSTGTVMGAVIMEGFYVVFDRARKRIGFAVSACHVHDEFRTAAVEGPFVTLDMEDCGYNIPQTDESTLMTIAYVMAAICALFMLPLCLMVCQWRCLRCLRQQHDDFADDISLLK
T2 sequence (P11712 whole entry): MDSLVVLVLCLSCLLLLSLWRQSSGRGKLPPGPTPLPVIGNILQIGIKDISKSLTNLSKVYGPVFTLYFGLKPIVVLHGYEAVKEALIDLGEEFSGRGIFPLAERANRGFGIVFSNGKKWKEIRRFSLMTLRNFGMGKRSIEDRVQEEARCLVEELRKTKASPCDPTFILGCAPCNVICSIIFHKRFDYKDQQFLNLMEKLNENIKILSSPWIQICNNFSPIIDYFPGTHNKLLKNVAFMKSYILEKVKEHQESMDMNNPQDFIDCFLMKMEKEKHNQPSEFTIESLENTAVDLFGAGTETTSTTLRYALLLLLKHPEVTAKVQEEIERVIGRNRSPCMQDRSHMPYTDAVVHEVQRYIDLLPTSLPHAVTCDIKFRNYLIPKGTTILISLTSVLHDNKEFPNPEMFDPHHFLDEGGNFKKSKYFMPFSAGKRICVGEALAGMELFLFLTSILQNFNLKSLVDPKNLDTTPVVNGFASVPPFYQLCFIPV

| IC50 (BACE1) [nM] | GSH human [1] | IC50 (CYP2C9) [µM] | IC50 (CYP3A4) [µM] | IC50 (CYP2D6) [µM] | SMILES |
| --- | --- | --- | --- | --- | --- |
| 13 | NF | > 10 | > 10 | – | CN=[S@@]1(=O)C[C@@](C)(c2cc(-c3cc(-c4cnc(OCC(F)F)cn4)no3)ccc2F)N=C(N)C1(C)C [Example 5, (1R,3R)-5-amino-3-(5-(3-(5-(2,2-difluoroethoxy)pyrazin-2-yl)isoxazol-5-yl)-2-fluorophenyl)-3,6,6-trimethyl-1-(methylimino)-3,6-dihydro-2H-1,4-thiazine 1-oxide 2,2,2-trifluoroacetate] |
| 6 | NF | > 10 | > 10 | > 10 | CN=[S@@]1(=O)C[C@@](C)(c2cc(-c3cc(-c4ncc(Cl)cn4)no3)ccc2F)N=C(N)C1(C)C [Example 6, (1R,3R)-5-amino-3-(5-(3-(5-chloropyrimidin-2-yl)isoxazol-5-yl)-2-fluorophenyl)-3,6,6-trimethyl-1-(methylimino)-3,6-dihydro-2H-1,4-thiazine 1-oxide 2,2,2-trifluoroacetate] |
| 56 | NF | > 10 | > 10 | > 10 | CN=[S@@]1(=O)C[C@@](C)(c2cc(-c3cc(-c4cnc(OC)cn4)no3)ccc2F)N=C(N)C1(C)C [Example 7, (1R,3R)-5-amino-3-(2-fluoro-5-(3-(5-methoxypyrazin-2-yl)isoxazol-5-yl)phenyl)-3,6,6-trimethyl-1-(methylimino)-3,6-dihydro-2H-1,4-thiazine 1-oxide 2,2,2-trifluoroacetate] |
| 50 | – | > 10 | > 10 | > 10 | [2H]C([2H])([2H])N=[S@@]1(=O)C[C@@](C)(c2cc(-c3cc(-c4cnc(OC)cn4)no3)ccc2F)N=C(N)C1(C)C [Example 24, (1R,3R)-3-[2-fluoro-5-[3-(5-methoxypyrazin-2-yl)isoxazol-5-yl]phenyl]-3,6,6-rimethyl-1-oxo-1-(trideuteriomethylimino)-2H-1,4-thiazin-5-amine 2,2,2-trifluoroacetate] |
